Converted amounts (≈) assume the structure as drawn.
Key:
Type in all cases: functional
Plasmopara viticola = experiment: Antioomycetic activity against Plasmopara viticola
Phytophthora infestans = experiment: Antioomycetic activity against Phytophthora infestans
Ipomoea purpurea = experiment: Herbicidal activity against Ipomoea purpurea
Abutilon theophrasti = experiment: Herbicidal activity against Abutilon theophrasti

| Structure (SMILES) | EC80 (Plasmopara viticola) | EC80 (Phytophthora infestans) | ED85 (Ipomoea purpurea) | ED85 (Abutilon theophrasti) |
| --- | --- | --- | --- | --- |
| C#CCOc1ccc(CCNC(=O)C(OC)c2ccc(Cl)cc2)cc1OC (centres undefined) | 3.5 µg/mL (≈ 9.02 µM) | 9.7 µg/mL (≈ 25 µM) | – | – |
| C#CCOc1ccc(CCNC(=O)C(OCCC)c2ccc(Cl)cc2)cc1OC (centres undefined) | 31 µg/mL (≈ 74.5 µM) | 5.4 µg/mL (≈ 13 µM) | – | – |
| Cn1c(C(F)(F)F)cc(=O)n(-c2cc3[nH]c(=O)ccc3cc2F)c1=O | – | – | 30 g/ha | 30 g/ha |
| C#CCOc1ccc(CCNC(=O)C(O)c2ccc(Cl)cc2)cc1OC (centres undefined) | 10.4 µg/mL (≈ 27.8 µM) | 34.6 µg/mL (≈ 92.6 µM) | – | – |
| C#CCOc1ccc(CCNC(=O)C(OC(=O)CC)c2ccc(Cl)cc2)cc1OC (centres undefined) | 2.8 µg/mL (≈ 6.51 µM) | 4.2 µg/mL (≈ 9.77 µM) | – | – |
| CCn1c(=O)ccc2cc(F)c(-n3c(=O)cc(C(F)(F)F)n(C)c3=O)cc21 | – | – | 10 g/ha | 3 g/ha |
| C#CCOc1ccc(CCNC(=O)C(OC(=O)OC)c2ccc(Cl)cc2)cc1OC (centres undefined) | 110 µg/mL (≈ 254 µM) | 38.6 µg/mL (≈ 89.4 µM) | – | – |
| Cn1c(C(F)(F)F)cc(=O)n(-c2cc3c(ccc(=O)n3C)cc2F)c1=O | – | – | 10 g/ha | 10 g/ha |
| C#CCOc1ccc(CCNC(=O)C(OCC=C)c2ccc(Cl)cc2)cc1OC (centres undefined) | 18.6 µg/mL (≈ 44.9 µM) | 44.1 µg/mL (≈ 107 µM) | – | – |
| C#CCOc1ccc(CCNC(=O)C(OCC#C)c2ccc(Cl)cc2)cc1OC (centres undefined) [MANDIPROPAMID] | 1.2 µg/mL (≈ 2.91 µM) | 0.1 µg/mL (≈ 0.243 µM) | – | – |
| C=CCn1c(=O)ccc2cc(F)c(-n3c(=O)cc(C(F)(F)F)n(C)c3=O)cc21 | – | – | 3 g/ha | 1 g/ha |
| C#CCOc1ccc(CCNC(=O)C(OC(C)C)c2ccc(Cl)cc2)cc1OC (centres undefined) | 10.1 µg/mL (≈ 24.3 µM) | 3.1 µg/mL (≈ 7.45 µM) | – | – |
| CC(C)Cn1c(=O)ccc2cc(F)c(-n3c(=O)cc(C(F)(F)F)n(C)c3=O)cc21 | – | – | 30 g/ha | 10 g/ha |
| C#CCOc1ccc(CCNC(=O)C(OCC#CC)c2ccc(Cl)cc2)cc1OC (centres undefined) | 14 µg/mL (≈ 32.9 µM) | 18.3 µg/mL (≈ 43 µM) | – | – |
| C#CCOc1ccc(CCNC(=O)C(OCCF)c2ccc(Cl)cc2)cc1OC (centres undefined) | 8.9 µg/mL (≈ 21.2 µM) | 4.7 µg/mL (≈ 11.2 µM) | – | – |
| COC(=O)Cn1c(=O)ccc2cc(F)c(-n3c(=O)cc(C(F)(F)F)n(C)c3=O)cc21 | – | – | 100 g/ha | 10 g/ha |
| C#CCOc1ccc(CCNC(=O)C(OC(=O)CC#N)c2ccc(Cl)cc2)cc1OC (centres undefined) | 4.9 µg/mL (≈ 11.1 µM) | 3.1 µg/mL (≈ 7.03 µM) | – | – |
| C#CCOc1ccc(CCNC(=O)C(OCC)c2ccc(Cl)cc2)cc1OC (centres undefined) | 2 µg/mL (≈ 4.98 µM) | 4.6 µg/mL (≈ 11.4 µM) | – | – |
| C#CCOc1ccc(CCNC(=O)C(OC(C)(C)C#C)c2ccc(Cl)cc2)cc1OC (centres undefined) | 3.5 µg/mL (≈ 7.96 µM) | 4.9 µg/mL (≈ 11.1 µM) | – | – |
| CCCn1c(=O)ccc2cc(F)c(-n3c(=O)cc(C(F)(F)F)n(C)c3=O)cc21 | – | – | 30 g/ha | 10 g/ha |
| Cn1c(C(F)(F)F)cc(=O)n(-c2cc3c(ccc(=O)n3CC#N)cc2F)c1=O | – | – | 30 g/ha | 10 g/ha |
| C#CCn1c(=O)ccc2cc(F)c(-n3c(=O)cc(C(F)(F)F)n(C)c3=O)cc21 | – | – | 3 g/ha | 1 g/ha |

— ChEMBL document CHEMBL1158365, “Alkyne chemistry in crop protection” (2009)
